Compound | melting point [°C]
CCCCCCCCCC(=O)Nc1ccc(S(=O)(=O)Nc2nnc(CO)s2)cc1 | 69 to 70
Cc1cc(Oc2c(Cl)cc(C(F)(F)F)cc2Cl)nn1C(=O)NOC(C)(C)C | 92 to 94
COC(=O)c1cccc(-c2cc(CCN3CCCC3=O)c3cc(OC)ccc3c2)c1 | 110 to 112
Cn1c2ccccc2c2sccc(=O)c21 | 113 to 114
O=C(Nc1ccc(C(F)(F)F)cc1)Nc1cccc(C(=O)N2CCOCC2)n1 | 208 to 210
Clc1ccc(-c2[nH]nc3c2Cc2ccccc2-3)cc1 | 266 to 268
CCCCc1nnc2ccccc2c1O | 180
CC(CN(C)C)N1c2ccccc2Sc2ccc(C(=O)NCc3cccs3)cc21 (racemic) | 135
O=C(CN1C(=O)C2(COc3ccc(-c4cccnc4)cc32)c2ccccc21)Nc1ccccc1F (stereo not drawn) | 98 to 100
COC(=O)C1c2ccccc2Oc2ccccc21 | 82
O=C(O)C(Cl)C1c2c(Cl)c(Cl)c(Cl)c(Cl)c2C(Cl)(Cl)C1(Cl)Cl (stereo not drawn) | 214 to 216
Cc1ccc(CN(O)C(N)=O)o1 | 105
CCCCC(COc1cccc(COc2cccc3cccnc23)c1)OC(C)=O (stereo not drawn) | 85 to 86
CCOC(=O)C(Oc1ccc(C(=O)CBr)cc1)C(=O)OCC | 55 to 58
COc1ccc(-n2nnc3ccc(-c4nnc(CCc5cccc(F)c5)o4)cc32)cc1 | 125 to 126
O=C(Nc1cccc(Br)n1)Nc1cccc2c1C1CC3(CCN1C2=O)SCCS3 (stereo not drawn) | 170
CCOC(=O)C1CCCCN1C(=O)/C=C/c1ccc(Sc2ccc3c(c2)OCCO3)c([N+](=O)[O-])c1 (stereo not drawn) | 74 to 75
COC(=O)c1ccc(OCCNC(=O)C2Cc3ccccc3N2S(=O)(=O)c2ccc(-c3ccc(F)cc3)cc2)cc1C(F)(F)F (stereo not drawn) | 62 to 70
COC(=O)c1cc(OC(C)=O)c2cc(-c3ccc4c(c3)C(C)(C)CCC4(C)C)ccc2c1C | 170
Cc1cn(N)c2ccc(OCc3ccccc3)cc12 | 104 to 106
N#Cc1ccc(CCC(=O)c2ccc(C#N)cc2)cc1 | 149 to 152
CCOC(=O)c1sc(OCC)nc1-c1cccc(C(F)(F)F)c1 | 69 to 72
CC(C)NCC(O)COc1ncc(Br)nc1N(C)C (stereo not drawn) | 130 to 131
CCOC(=O)c1c(C(F)(F)F)nc(C)c(-c2ccccc2)c1O | 82 to 84
CCOC(=O)c1oc2cc(O)c(O)cc2c1C | 212 to 214
CC(C)(C)CC(=O)N[C@H]1CC[C@H](CCN2CCC(c3cccc4c3CCO4)CC2)CC1 | 193

Compound | melting point [°C]
O=C1CCC2CCCC3CC(=O)N1C23 (stereo not drawn) | 118 to 120
C[Si](C)(C)C#Cc1cn(-c2c(Cl)cc(C(F)(F)F)cc2Cl)nc1C(F)(F)F | 105 to 108
CC(C(=O)c1ccc(Br)cc1)n1ncn(-c2ccc(N3CCN(c4ccc(O[Si](C)(C)C(C)(C)C)cc4)CC3)cc2)c1=O (stereo not drawn) | 178
CC(C)SC(=O)CCS(=O)(=O)C(C)C | 45 to 47
OCC1(Cc2ccccc2)CCC2(CC1)OCCO2 | 76 to 78
CCOC(=O)c1cc(O)c2nc(C)n(C)c2c1 | 272 to 273
C=CCc1cc(CC(=O)O)ccc1OCc1ccc2ccccc2n1 | 130
C=CCN(C)C(=O)/C=C/CSc1nc(N)cc(Cl)n1 | 140 to 142
CCOC(=O)C1(C(=O)OCC)Oc2ccc(CN/C=C3\C(=O)NC(=O)c4ccc(Br)cc43)cc2O1 | 222 to 223
Cc1nnnn1C(C=O)=C(c1ccc(F)cc1)c1ccc(F)cc1 | 151 to 152
COc1ccc2c(c1[N+](=O)[O-])CNCC(=O)N2 | 220 to 222
O=C1CCCCc2cc(I)ccc2N1 | 207 to 208
CCN(CC)CCCOc1ccc(C[C@H](NC(=O)[C@@H]2CCCN2S(=O)(=O)c2ccc(C)cc2)C(=O)O)cc1 | 76 to 82
O=C1c2cc3nnn(C4CC4)c(=O)c3cc2OC2CCCN12 (stereo not drawn) | 215 to 217
CCOC(=O)C1(CNC(=O)C=CC(Cc2ccc3ccccc3c2)N(C)C(=O)c2cc(C(F)(F)F)cc(C(F)(F)F)c2)CCCC1 (stereo not drawn) | 136 to 138
COCOc1ccc(-n2c(SCc3ccc(Br)cc3)nc3ccc(Cl)cc32)cc1 | 123 to 124
CC(C)S(=O)(=O)n1c(N)nc2ccc(C(O)(CC(=O)N(C)C)c3ccccc3)cc21 (stereo not drawn) | 209 to 210
CC(C)(C)NC1=NCCNC(c2ccccc2)=C1 | 93 to 97
C=CCCCCCCCCCCCCCCCCCCCCO | 62 to 64
O=C(c1ccsc1)c1cccc(-c2c(O)c3ccc(Cl)cc3[nH]c2=O)c1 | 287 to 290
CC(C)(C)c1cc(C#Cc2ccc(NS(C)(=O)=O)cc2Cl)cc(N2CCC(=O)NC2=O)c1 | 278 to 280
CC1(C)Nc2cc(F)ccc2NC1=O | 148 to 149
Cc1ccccc1CC(Cc1ccccc1C)C(=O)O | 94 to 96
CC(=O)OC1=CCc2c(Oc3ccc(NC(=O)c4ccc(Cl)c(Cl)c4)cn3)cccc21 | 161 to 164
O=C1CCCC(CN2CCN(c3ccccn3)CC2)C1 (stereo not drawn) | 86 to 90
Clc1ccc(C#Cc2ccc(Br)cc2)cc1 | 179

Compound | melting point [°C]
CCc1nn(CC(N)=O)c(CC)c1Oc1cc(Cl)cc(Cl)c1 | 164 to 166
CC(C)c1ccc(-n2ncc(C(=O)NC34CC5CC(CC(C5)C3)C4)c2OCCN2CCOCC2)cc1 | 132 to 134
CCOC(=O)c1c(N2CCN(C(=O)c3cccs3)CC2)c2cnccc2n(CC(=O)c2ccccc2)c1=O | 157
CC(CCCl)C(=O)Nc1cc(C(C)(C)C)ns1 (stereo not drawn) | 144 to 146
CCc1c(C)sc(NC(=O)OC(C)(C)C)c1C(=O)O | 196 to 197
CCOC(=O)c1cc2c(nc(C)n2C)c2c1CCC(OC)(c1ccccc1C)O2 (stereo not drawn) | 198
Cc1oc(-c2ccccc2)nc1COc1ccc(CN(O)C(N)=O)cc1 | 157 to 159
CCNC(=O)c1c([Si](C)(C)C)ccc(I)c1Cl | 128 to 130
CN1C=CCC2C1N2S(=O)(=O)c1ccc(N)cc1 (stereo not drawn) | 188 to 190
CCC[C@H]1CCC[C@H](N2C(=O)c3ccccc3C2=O)C(=O)N1 | 146 to 151
CC(C)c1ccc2c(c1)c(Sc1ccccc1)c(CCC(C)(C)C(=O)O)n2Cc1ccc(Cl)cc1 | 164 to 166
CCCC(=O)NCC1Cc2ccc(-c3ccc(=O)[nH]n3)cc2C1 (stereo not drawn) | 204 to 205
CCCCCCCN(CCCCCSc1nc2cc(C)ccc2[nH]1)C(=O)Nc1ccc(F)cc1F | 70 to 72
CCN(CC)c1ccc(S(=O)(=O)N2CC(O)CC2=S)cc1 (stereo not drawn) | 149 to 150
O=C(CCCCCC1(C(=O)O)CCCC1)CCCCCC1(C(=O)O)CCCC1 | 78 to 85
CCOC(=O)N1CC2CC1CN2Cc1ccccc1 (stereo not drawn) | 124 to 128
CCN(CC)CC/C=C/c1ccc2c(Nc3ccc(Sc4nccn4C)c(Cl)c3)c(C#N)cnc2c1 | 200 to 210
CC(C)(C)S(=O)(=O)NC(=O)c1cccc([N+](=O)[O-])c1 | 220
O=C(CNc1ccc(F)c(F)c1)Nc1c(Cl)ccc2nc(N3CC[C@@H](O)C3)ccc12 | 238 to 240
C=C(Cc1ccccc1)C(=O)N[C@@H](CC(C)C)C(=O)O | 56 to 60
Cc1c(F)c(Cl)cc2c1c(=O)c(C(=O)O)cn2C1CC1 | 258 to 260
O=C1N(CCCCl)c2ccccc2C12COc1cc3c(cc12)OCO3 (stereo not drawn) | 144 to 146
COC(=O)c1ccc(OC2=C3N=C4CCCCC4=C3C(Cc3cccc(F)c3)C=C2)o1 (stereo not drawn) | 86 to 88
CC(C)(C)NCC(O)COc1ccc2nc(S(N)(=O)=O)sc2c1 (stereo not drawn) | 195 to 196
COC(=O)c1ccc(OC(=O)Cl)cc1 | 52 to 53
COC1(c2ccc3c(c2)OCO3)CCC(=O)CC1 | 84 to 85

Compound | melting point [°C]
CCC(=O)Oc1cccc2c1C(=O)c1c(O)cccc1C2C(=O)CC (stereo not drawn) | 125
c1ccc2cc(Cc3ccncc3)ccc2c1 | 66 to 67
O=C(CBr)c1ccc2oc3ccc(C(=O)CBr)cc3c(=O)c2c1 | 209 to 210
COC(=O)c1cc(=O)n2nc(COC(C)=O)nc2[nH]1 | 260
O=C(/C(=C\c1ccc(I)cc1)Sc1ccc(Br)cc1)c1ccc(Br)cc1 | 128 to 130
O=C1CCC(c2ccc(Cl)c(Cl)c2)c2ccccc2N1 (stereo not drawn) | 191 to 194
NC1=NCC(NC=O)(N[C@@H]2CC=C(CO)C2)C(Cl)=N1 (stereo partly drawn) | 148 to 150
Cc1ccc(Cl)c2sc(N)nc12 | 206
Cc1cc(CCCCCCCOc2ccc(C(=O)OC(C)C)cc2)on1 | 45 to 46
O=C(Nc1cccc(F)c1)NC1CCN(S(=O)(=O)c2cccc(C(F)(F)F)c2)CC1 | 86 to 88
Cc1nn(C)c(N)c1C(=O)Nc1ccccc1F | 101 to 103
CCNc1nc(-c2ccc(F)cc2)c(-c2ccc(S(C)(=O)=O)cc2)s1 | 218 to 219
COc1ccc(-c2nc(S(=O)c3ccncc3)[nH]c2-c2ccc(OC)cc2)cc1 (stereo not drawn) | 170 to 171
CCOC(=O)C1CC(=O)C(N=Nc2ccc(Br)cc2)=C(O)C1 (stereo not drawn) | 169 to 171
FC(F)(F)CC1(CC2(CC(F)(F)F)N=c3cc(Cl)c(Cl)cc3=N2)N=c2cc(Cl)c(Cl)cc2=N1 | 235 to 237
CC(C)CNCC(O)c1cc(C(F)(F)F)nc2c(C(F)(F)F)cccc12 (stereo not drawn) | 132
CCOC(=O)c1c(C)nn(-c2ccc(F)cc2)c1N | 129 to 131
CC1OC(Cn2cncn2)(c2ccccc2)C1(C)C (stereo not drawn) | 102
O=C(Oc1cc(OC(=O)c2ccccc2)c(Cl)cn1)c1ccccc1 | 124 to 125
CCOC(=O)/C=C/c1ccc(OCCOC)cc1Oc1ncc(Cl)cc1Cl | 70.7 to 71.3
CCOC(=O)CCc1ccc(OC)c(OCc2ccccc2)c1 | 49.5 to 50.5
CC(=O)Nc1ccc(C#Cc2ccc(OC3CN4CCC3CC4)nn2)cc1 (stereo not drawn) | 170 to 175
CN1C(=O)c2cnc(-c3ccccc3)nc2N(C(=O)CCl)c2ccccc21 | 189 to 190
CNc1nnc(C(C)(C)C)c(=O)n1NC | 170 to 171
Cc1cc(C)c2ncc(Br)n2n1 | 137 to 139
